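These data come from cells grown in 96-well plates and exposed to compound for 48 hours at five concentrations. At the GI50, growth is halved.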 The source made the active and inactive calls. No stated cut-off is given here; in the data, active = GI50 up to about 1.1 µM and inactive = higher.
Experiments:
Experiment in all cases: DTP human tumour cell line panel, 48 h
Malme-3M = system: Malme-3M
HT-29 = system: HT-29
COLO 205 = system: COLO 205
CAKI-1 = system: CAKI-1
SNB-75 = system: SNB-75
HCC 2998 = system: HCC 2998
SF-295 = system: SF-295
TK-10 = system: TK-10
NCI-H226 = system: NCI-H226
LOX IMVI = system: LOX IMVI
OVCAR-8 = system: OVCAR-8
K562 = system: K562
SK-MEL-28 = system: SK-MEL-28
HL-60 = system: HL-60
OVCAR-5 = system: OVCAR-5
SF-539 = system: SF-539
OVCAR-3 = system: OVCAR-3
DU-145 = system: DU-145
MDA-N = system: MDA-N

Measured: GI50

Nc1c(-c2nc3ccccc3[nH]2)sc(=S)n1-c1ccc(Cl)cc1
inactive: Malme-3M 36.2 µM | HT-29 19.7 µM | COLO 205 35.3 µM | CAKI-1 33 µM | SNB-75 27.7 µM | HCC 2998 21.8 µM | SF-295 22.9 µM | TK-10 30 µM | NCI-H226 26.5 µM | LOX IMVI 26.1 µM | OVCAR-8 23.8 µM | K562 32.8 µM | SK-MEL-28 33.7 µM | HL-60 > 100 µM | OVCAR-5 > 100 µM | SF-539 20.1 µM | OVCAR-3 18.5 µM

COc1nc2ccc(COc3ccc(C(=O)NC(CCC(=O)O)C(=O)O)cc3)cc2nc1OC (stereo not drawn)
inactive: HT-29 > 10 µM | COLO 205 > 10 µM | CAKI-1 > 10 µM | SNB-75 > 10 µM | HCC 2998 > 10 µM | DU-145 > 10 µM | SF-295 > 10 µM | MDA-N > 10 µM | TK-10 > 10 µM | NCI-H226 > 10 µM | LOX IMVI > 10 µM | K562 > 10 µM | SK-MEL-28 > 10 µM | HL-60 > 10 µM | OVCAR-5 > 10 µM | SF-539 > 10 µM | OVCAR-3 > 10 µM

OCC(O)COc1ccc(F)cc1 (stereo not drawn)
inactive: Malme-3M > 100 µM | HT-29 > 100 µM | COLO 205 > 100 µM | CAKI-1 > 100 µM | SNB-75 > 100 µM | HCC 2998 > 100 µM | SF-295 > 100 µM | TK-10 > 100 µM | NCI-H226 > 100 µM | LOX IMVI > 100 µM | OVCAR-8 > 100 µM | K562 > 100 µM | SK-MEL-28 > 100 µM | HL-60 > 100 µM | OVCAR-5 > 100 µM | SF-539 > 100 µM | OVCAR-3 > 100 µM

CCNC(=O)CCN(C(=O)O)S(=O)(=O)c1ccc(NC(=O)c2ccccc2)cc1
inactive: Malme-3M > 100 µM | HT-29 50.8 µM | COLO 205 > 100 µM | CAKI-1 > 100 µM | SNB-75 > 100 µM | HCC 2998 > 100 µM | SF-295 > 100 µM | TK-10 > 100 µM | NCI-H226 > 100 µM | LOX IMVI 22.6 µM | OVCAR-8 > 100 µM | K562 86.3 µM | SK-MEL-28 > 100 µM | HL-60 > 100 µM | OVCAR-5 > 100 µM | SF-539 > 100 µM | OVCAR-3 > 100 µM

NC(=O)c1ncn2c1NCC1OC2C(O)C1O (stereo not drawn)
inactive: Malme-3M > 100 µM | HT-29 > 100 µM | COLO 205 > 100 µM | CAKI-1 > 100 µM | SNB-75 > 100 µM | HCC 2998 > 100 µM | SF-295 > 100 µM | TK-10 > 100 µM | NCI-H226 > 100 µM | LOX IMVI > 100 µM | OVCAR-8 > 100 µM | K562 > 100 µM | SK-MEL-28 > 100 µM | HL-60 > 100 µM | OVCAR-5 > 100 µM | SF-539 > 100 µM | OVCAR-3 > 100 µM

C=CC1(C)OC2(CCN(C(=O)OCC)CC2)OC1C (stereo not drawn)
inactive: Malme-3M > 100 µM | HT-29 > 100 µM | COLO 205 > 100 µM | CAKI-1 > 100 µM | SNB-75 > 100 µM | HCC 2998 > 100 µM | DU-145 > 100 µM | SF-295 > 100 µM | MDA-N > 100 µM | TK-10 > 100 µM | NCI-H226 > 100 µM | LOX IMVI > 100 µM | OVCAR-8 > 100 µM | K562 45.7 µM | SK-MEL-28 > 100 µM | HL-60 > 100 µM | OVCAR-5 > 100 µM | SF-539 > 100 µM | OVCAR-3 > 100 µM

COC(=O)C1=C(O)c2cc(OC)c(OC)c(OC)c2[C@H](c2cc(OC)c(OC)c(OC)c2)C1C(=O)OC (stereo partly drawn)
inactive: Malme-3M 49.3 µM | HT-29 22.8 µM | COLO 205 15.8 µM | CAKI-1 > 100 µM | SNB-75 38.7 µM | HCC 2998 27.6 µM | SF-295 13.6 µM | TK-10 > 100 µM | NCI-H226 49.3 µM | LOX IMVI 41.1 µM | OVCAR-8 36.4 µM | K562 24.5 µM | SK-MEL-28 21.8 µM | HL-60 16.8 µM | OVCAR-5 > 100 µM | SF-539 14.2 µM | OVCAR-3 22.9 µM

COC1(OC)C2(Cl)C(Cl)=C(Cl)C1(Cl)C1C=CC=CC12 (stereo not drawn)
inactive: Malme-3M 31.6 µM | HT-29 47.8 µM | COLO 205 69.8 µM | CAKI-1 45.7 µM | SNB-75 66.5 µM | HCC 2998 65.2 µM | SF-295 > 100 µM | TK-10 > 100 µM | NCI-H226 > 100 µM | LOX IMVI 40.2 µM | OVCAR-8 > 100 µM | K562 51.6 µM | SK-MEL-28 > 100 µM | HL-60 55.8 µM | OVCAR-5 > 100 µM | SF-539 > 100 µM | OVCAR-3 > 100 µM
